# Measured values published in US20070219214A1, “Dual NK2/NK3-antagonists, pharmaceutical compositions comprising them, and processes for their preparation” (Solvay pharmaceuticals GmbH, priority 2006, published 2007).
# Assays:
# human NK2-receptor = target: T1, human NK2-receptor (Homo sapiens, UniProt P21452); assay: Binding potency of the test substances to NK2-receptors in vitro ([3H]-SR 48968 displacement); parameters: expressed in transfected cells; host or cells: CHO cells (membrane preparation); settings: human NK2-receptor in CHO cell membranes, [3H]-SR 48968 (saredutant); average of at least three measurements; read-out: pKi, binding potency to NK2-receptors (converted)
# T1 sequence (P21452 1-398): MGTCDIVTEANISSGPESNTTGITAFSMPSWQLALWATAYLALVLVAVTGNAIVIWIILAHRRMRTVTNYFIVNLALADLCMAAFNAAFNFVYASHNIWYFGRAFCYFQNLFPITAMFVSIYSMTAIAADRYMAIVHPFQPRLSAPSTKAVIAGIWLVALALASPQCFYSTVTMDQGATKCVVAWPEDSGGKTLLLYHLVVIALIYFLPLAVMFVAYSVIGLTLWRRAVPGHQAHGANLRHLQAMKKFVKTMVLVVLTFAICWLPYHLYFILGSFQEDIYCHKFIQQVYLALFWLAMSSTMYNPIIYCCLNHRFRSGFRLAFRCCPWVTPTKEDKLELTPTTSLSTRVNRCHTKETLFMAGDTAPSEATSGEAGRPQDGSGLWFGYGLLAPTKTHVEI
# Excerpt: 2. Determination of the Binding Potency of the Test Substances to NK2-Receptors in Vitro
# The affinity of test compounds for NK2-receptors can be determined by measuring the ability of the test compound to displace a radiolabeled ligand from its specific binding site.
# (§1) The radiolabel used in this assay is [^3H]-SR 48968 (saredutant). Receptors were obtained from membrane preparations of CHO-cells (Chinese Hamster Ovary cells), in which the human NK2-receptor was stably expressed. Membranes were incubated with [^3H]-saredutant in the absence or presence of test compounds at different concentrations, diluted in a buffer system. Separation of bound radioactivity from free radioactivity was done by filtration through glass fiber filters (Packard GF/B) with several washings with ice-cold buffer solution. Bound radioactivity was measured with a liquid scintillation counter (total binding). Unspecific binding was determined by incubation with an excess (0.1 μmol/l) of unlabeled saredutant. Specific binding is obtained by subtracting the unspecific binding from the total binding.
# (§2) Radioactivity of the specific binding was plotted against the concentration of the test compound and IC50 values, i.e. the concentration of test compound by which 50% of the radioligand is displaced, were calculated. The inhibition constant (Ki) was calculated according to the Cheng-Prusoff equation, and listed as its negative logarithmic value (pKi). The pKi value describes the potency of a test compound to bind to a receptor.
# (§3) The average result of all measurements is listed above.
# human NK3 receptor = target: T2, human NK3 receptor (Homo sapiens, UniProt P29371); assay: Binding potency of the test substances to NK3-receptors in vitro ([3H]-SR 142801 displacement); parameters: expressed in transfected cells; host or cells: CHO cells (membrane preparation); settings: human NK3-receptor in CHO cell membranes, [3H]-SR 142801 (osanetant), average of at least three measurements; for Ki: read-out: pKi, binding potency to NK3-receptors (converted)
# T2 sequence (P29371 1-465): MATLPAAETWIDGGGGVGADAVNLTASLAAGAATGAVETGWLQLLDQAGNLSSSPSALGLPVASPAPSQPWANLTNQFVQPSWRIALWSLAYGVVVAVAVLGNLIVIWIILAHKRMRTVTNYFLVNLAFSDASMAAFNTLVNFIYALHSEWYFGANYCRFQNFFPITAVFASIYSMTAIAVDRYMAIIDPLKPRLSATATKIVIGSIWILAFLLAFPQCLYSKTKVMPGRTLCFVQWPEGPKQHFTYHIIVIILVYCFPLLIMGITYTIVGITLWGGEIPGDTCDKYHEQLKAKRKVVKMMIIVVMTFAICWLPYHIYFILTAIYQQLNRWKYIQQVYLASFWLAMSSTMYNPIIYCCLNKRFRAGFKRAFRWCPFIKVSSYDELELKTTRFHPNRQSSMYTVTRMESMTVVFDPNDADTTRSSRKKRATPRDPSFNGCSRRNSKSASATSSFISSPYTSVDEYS
# Excerpt: 3. Determination of the Binding Potency of the Test Substances to NK3-Receptors in Vitro
# The affinity of test compounds for NK3-receptors can be determined by measuring the ability of the test compound to displace a radiolabeled ligand from its specific binding site.
# as §1, with “142801 (osanetant).” for “48968 (saredutant).”, “NK3-receptor” for “NK2-receptor”, “[^3H]-osanetant” for “[^3H]-saredutant”, “(1” for “(0.1”, “osanetant.” for “saredutant.”
# as §2, with “(pKi)” for “(pKi).”
# as §3
SMILES,Ki (human NK2-receptor),Ki (human NK3 receptor),"pKi, binding potency to NK3-receptors (human NK3 receptor)"
CN(C)C(=O)C1(N2CCCCC2)CCN(CCC(CN(C)C(=O)c2ccccc2F)c2ccc(Cl)c(Cl)c2)CC1 (stereo not drawn) [compound 72],3.16 nM,39.8 nM,
Cc1ccccc1C(=O)N(C)CC(CCN1CCC(C(=O)N(C)C)(N2CCCCC2)CC1)c1ccc(Cl)c(Cl)c1 (stereo not drawn) [compound 78],1.58 nM,25.1 nM,
CN(C)C(=O)C1(N2CCCCC2)CCN(CCC(CN(C)C(=O)c2cccc(F)c2)c2ccc(Cl)c(Cl)c2)CC1 (stereo not drawn) [compound 79],2 nM,20 nM,
CN(C)C(=O)C1(N2CCCCC2)CCN(CCC(CN(C)C(=O)c2ccc(S(N)(=O)=O)cc2)c2ccc(Cl)c(Cl)c2)CC1 (stereo not drawn) [compound 46],6.31 nM,31.6 nM,
CN(C)C(=O)C1(N2CCCCC2)CCN(CCC(CN(C)C(=O)c2ccco2)c2ccc(Cl)c(Cl)c2)CC1 (stereo not drawn) [compound 31],3.98 nM,39.8 nM,
CN(C)C(=O)C1(N2CCCCC2)CCN(CCC(CN(C)C(=O)Cc2cccnc2)c2ccc(Cl)c(Cl)c2)CC1 (stereo not drawn) [compound 50],39.8 nM,10 nM,
COc1ccc(-c2ocnc2C(=O)N(C)CC(CCN2CCC(C(=O)N(C)C)(N3CCCCC3)CC2)c2ccc(Cl)c(Cl)c2)cc1 (stereo not drawn) [compound 66],,20 nM,
"CN(C)C(=O)C1CCCCN1C1CCN(CC[C@H](CN(C)C(=O)c2ccccc2)c2ccc(Cl)c(Cl)c2)CC1 (stereo partly drawn) [compound 100, 1′-[(3S)-4-[benzoyl(methyl)amino]-3-(3,4-dichlorophenyl)-butyl]-N,N-dimethyl-1,4′-bipiperidine-2-carboxamide]",≤ 10 nM,,
CN(C)C(=O)C1(N2CCCCC2)CCN(CCC(CN(C)C(=O)c2cc3ccccc3[nH]2)c2ccc(Cl)c(Cl)c2)CC1 (stereo not drawn) [compound 39],20 nM,31.6 nM,
CN(C)C(=O)C1(N2CCCCC2)CCN(CCC(CN(C)C(=O)c2ccc(C#N)cc2)c2ccc(Cl)c(Cl)c2)CC1 (stereo not drawn) [compound 91],7.94 nM,15.8 nM,
CN(C)C(=O)C1(N2CCCCC2)CCN(CCC(CN(C)C(=O)Cc2ccccn2)c2ccc(Cl)c(Cl)c2)CC1 (stereo not drawn) [compound 49],10 nM,7.94 nM,
CN(C)C(=O)C1(N2CCCCC2)CCN(CCC(CN(C)C(=O)c2c(F)c(F)c(F)c(F)c2F)c2ccc(Cl)c(Cl)c2)CC1 (stereo not drawn) [compound 73],12.6 nM,39.8 nM,
"CN(C[C@@H](CCN1CCC(C(=O)N2CCCC2)(N2CCCCC2)CC1)c1ccc(Cl)c(Cl)c1)C(=O)c1ccccc1 [compound 124, N-{(2S)-2-(3,4-dichlorophenyl)-4-[4′-(pyrrolidin-1-ylcarbonyl)-1,4′-bipiperidin-1′-yl]butyl}-N-methylbenzamide]",1 nM,15.8 nM,
CN(C)C(=O)C1(N2CCCCC2)CCN(CCC(CN(C)C(=O)c2cnccn2)c2ccc(Cl)c(Cl)c2)CC1 (stereo not drawn) [compound 42],15.8 nM,,
CN(C)C(=O)C1(N2CCCCC2)CCN(CCC(CN(C)C(=O)c2ccc(Cl)c(S(N)(=O)=O)c2)c2ccc(Cl)c(Cl)c2)CC1 (stereo not drawn) [compound 47],3.16 nM,20 nM,
CN(C)C(=O)C1(N2CCCCC2)CCN(CCC(CN(C)C(=O)c2cccn2C)c2ccc(Cl)c(Cl)c2)CC1 (stereo not drawn) [compound 30],2.51 nM,20 nM,
CN(C)C(=O)C1(N2CCCCC2)CCN(CCC(CN(C)C(=O)c2c(-c3ccccc3)oc3ccccc3c2=O)c2ccc(Cl)c(Cl)c2)CC1 (stereo not drawn) [compound 21],12.6 nM,63.1 nM,
CN(C)C(=O)C1(N2CCCCC2)CCN(CCC(CN(C)C(=O)c2ccc3c(c2)OC(F)(F)O3)c2ccc(Cl)c(Cl)c2)CC1 (stereo not drawn) [compound 63],3.98 nM,20 nM,

SMILES,Ki (human NK2-receptor),Ki (human NK3 receptor),"pKi, binding potency to NK3-receptors (human NK3 receptor)"
CN(C)C(=O)C1(N2CCCCC2)CCN(CCC(CN(C)C(=O)c2cc[nH]c2)c2ccc(Cl)c(Cl)c2)CC1 (stereo not drawn) [compound 64],12.6 nM,79.4 nM,
CN(C)C(=O)C1(N2CCCCC2)CCN(CCC(CN(C)C(=O)Cc2ccccc2)c2ccc(Cl)c(Cl)c2)CC1 (stereo not drawn) [compound 89],12.6 nM,15.8 nM,
CN(C)C(=O)C1(N2CCCCC2)CCN(CCC(CN(C)C(=O)c2ccc(NC(=O)OC(C)(C)C)cc2)c2ccc(Cl)c(Cl)c2)CC1 (stereo not drawn) [compound 54],,6.31 nM,
Cc1ccc(C(=O)N(C)CC(CCN2CCC(C(=O)N(C)C)(N3CCCCC3)CC2)c2ccc(Cl)c(Cl)c2)cc1 (stereo not drawn) [compound 87],7.94 nM,39.8 nM,
CN(C)C(=O)C1(N2CCCCC2)CCN(CCC(CN(C)C(=O)c2ccccc2Br)c2ccc(Cl)c(Cl)c2)CC1 (stereo not drawn) [compound 71],5.01 nM,39.8 nM,
CN(C)C(=O)C1(N2CCCCC2)CCN(CCC(CN(C)C(=O)CC(c2ccccc2)c2ccccc2)c2ccc(Cl)c(Cl)c2)CC1 (stereo not drawn) [compound 28],20 nM,,
CN(C)C(=O)C1(N2CCCCC2)CCN(CCC(CN(C)C(=O)c2ccc(-c3ccccc3)cc2)c2ccc(Cl)c(Cl)c2)CC1 (stereo not drawn) [compound 27],15.8 nM,,
CN(C)C(=O)C1(N2CCCCC2)CCN(CCC(CN(C)C(=O)c2ccc(Cl)cc2Cl)c2ccc(Cl)c(Cl)c2)CC1 (stereo not drawn) [compound 75],5.01 nM,39.8 nM,
CN(C)C(=O)C1(N2CCCCC2)CCN(CCC(CN(C)C(=O)c2ccsc2)c2ccc(Cl)c(Cl)c2)CC1 (stereo not drawn) [compound 38],1.58 nM,25.1 nM,
CN(C)C(=O)C1(N2CCCCC2)CCN(CCC(CN(C)C(=O)Cc2cc(O)nc(O)n2)c2ccc(Cl)c(Cl)c2)CC1 (stereo not drawn) [compound 57],,63.1 nM,
CN(C)C(=O)C1(N2CCCCC2)CCN(CCC(CN(C)C(=O)Cc2c[nH]c3ccccc23)c2ccc(Cl)c(Cl)c2)CC1 (stereo not drawn) [compound 40],12.6 nM,63.1 nM,
CN(C)C(=O)C1(N2CCCCC2)CCN(CCC(CN(C)C(=O)c2ccc[nH]2)c2ccc(Cl)c(Cl)c2)CC1 (stereo not drawn) [compound 35],3.16 nM,,
CSc1ncc(C(=O)N(C)CC(CCN2CCC(C(=O)N(C)C)(N3CCCCC3)CC2)c2ccc(Cl)c(Cl)c2)n1Cc1ccccc1 (stereo not drawn) [compound 20],25.1 nM,,
CN(C)C(=O)C1(N2CCCCC2)CCN(CC[C@H](CN(C)C(=O)C(Cc2ccc(-c3ccccc3)cc2)NC(=O)C(C)(C)C)c2ccc(Cl)c(Cl)c2)CC1 (stereo partly drawn) [compound 60],,,7.2
"CCN(C)C(=O)C1(N2CCCCC2)CCN(CC[C@H](CN(C)C(=O)c2ccccc2)c2ccc(Cl)c(Cl)c2)CC1 [compound 95, 1′-[(3S)-4-[benzoyl(methyl)amino]-3-(3,4-dichlorophenyl)butyl]-N-ethyl-N-methyl-1,4′-bipiperidine-4′-carboxamide]",≤ 10 nM,,
CN(C)C(=O)C1CCCCN1C1CCN(CC[C@H](CN(C)C(=O)c2ccccc2)c2ccc(Cl)c(Cl)c2)CC1 (stereo partly drawn) [compound 100],3.16 nM,,
CN(C)C(=O)C1(N2CCCCC2)CCN(CCC(CN(C)C(=O)c2cccc3ccccc23)c2ccc(Cl)c(Cl)c2)CC1 (stereo not drawn) [compound 92],20 nM,,
